Source: patent US9296732B2, “Substituted benzamides and their uses” (The Board of Trustees of the Leland Stanford Junior …, priority 2012, dated 2016)

system: RCC4/VHL; assay: XTT cell viability assay, RCC4 with VHL-reintroduced (RCC4/VHL) versus RCC4, selectivity ratio; format: cell-based; conditions: second TABLE 1 (Examples 39-55)
Description: RCC4 parental and RCC4 with VHL-reintroduced (RCC4/VHL), SN12C and SN12C-CSCG-VHL shRNA were maintained in DMEM supplemented with 10% FCS.
For 2,3-bis[2-methoxy-4-nitro-5-sulfophenyl]-2H-tetrazolium-5-carboxanilide (XTT) assays, five thousand cells were plated in 96-well plates. The next day, vehicle (DMSO) or drug was added by serial dilution. Four days later, media were aspirated, XTT solution (0.3 mg/ml of XTT (Sigma), 2.65 mg/ml N-methyl dibenxopyrazine methyl sulfate (Simga) in phenol red-free media) was added, and the plates were incubated at 37° C. for 1-2 hours. Metabolism of XTT was quantified by measuring the absorbance at 450 nm. IC50s were calculated using linear interpolation. For clonogenic survival assays, three hundred cells were plated per 60 mm tissue culture dish. The cells were allowed to attach overnight and then treated with vehicle or drug for 14 days. Colonies were fixed and stained with crystal violet (0.1% crystal violet in 95% ethanol). All conditions were measured in triplicate and each experiment was done in duplicate or triplicate. To determine necrosis, cells were treated with drug for a given time point. Media and cells were collected, centrifugated, and resuspended in 0.4% trypan blue (Invitrogen). Live and dead cells were counted on a hematocytometer.
The designation A reflects an IC50 of <1 nM; B reflects an IC50 ranging from 1 to 20 nM; and C is an IC50 of >20 nM. The designation “a” reflects a ratio of RCC4/RCC-VHL+ ranging from 1 to ≦10; “b” reflects from 10 to ≦100; “c” reflects a ratio of >100. Compounds 1-29 have an IC50 value of ≦10 μM when tested in the above assay.

SMILES | Ratio (IC50 RCC4 Proficient VHL)/IC50 RCC4 Deficient VHL)
Cc1oc(-c2ccc(C(=O)NCc3cccnc3)cc2)nc1CS(=O)(=O)C1CCNCC1 [Example 39, 4-(5-Methyl-4-((piperidin-4-ylsulfonyl)methyl)oxazol-2-yl)-N-(pyridin-3-ylmethyl)benzamide] | b (from 10 to ≦100)
Cc1oc(-c2ccc(C(=O)NCc3cccnc3)cc2)nc1CS(=O)(=O)C1CCN(C)CC1 [Example 40, 4-(5-Methyl-4-((1-methylpiperidin-4-ylsulfonyl)methyl)oxazol-2-yl)-N-(pyridin-3-ylmethyl)benzamide] | b (from 10 to ≦100)
Cc1oc(-c2ccc(C(=O)NCc3cccnc3)cc2)nc1CS(=O)(=O)[C@H]1CC[C@@H](N2CCCC2)CC1 [Example 42] | b (from 10 to ≦100)
Cc1oc(-c2ccc(C(=O)NCc3cccnc3)cc2)nc1CS(=O)(=O)[C@H]1CC[C@@H](N2CCCCC2)CC1 [Example 43] | b (from 10 to ≦100)

system: not given; assay: not given; conditions: not given

SMILES | melting point
Cc1ccc(S(=O)(=O)Cc2nc(-c3ccc(C(=O)NCc4ccccn4)cc3)oc2C)cc1 [Example 4, 4-(5-Methyl-4-{[(4-methylphenyl)sulfonyl]methyl}-1,3-oxazol-2-yl)-N-(2-pyridinylmethyl)benzamide] | 154 to 155 °C
Cc1ccc(S(=O)(=O)Cc2nc(-c3ccc(C(=O)NCCc4cccnc4)cc3)oc2C)cc1 [Example 8, 4-(5-Methyl-4-{[(4-methylphenyl)sulfonyl]methyl}-1,3-oxazol-2-yl)-N-[2-(3-pyridinyl)ethyl]benzamide] | 207 to 208 °C
Cc1ccc(S(=O)(=O)Cc2nc(-c3ccc(C(=O)NCc4nccn4C)cc3)oc2C)cc1 [Example 10, N-[(1-Methyl-1H-imidazol-2-yl)methyl]-4-(5-methyl-4-{[(4-methylphenyl)sulfonyl]methyl}-1,3-oxazol-2-yl)benzamide] | 190 to 192 °C
Cc1ccc(S(=O)(=O)Cc2nc(-c3ccc(C(=O)NCc4cncn4C)cc3)oc2C)cc1 [Example 11, N-[(1-Methyl-1H-imidazol-5-yl)methyl]-4-(5-methyl-4-{[(4-methylphenyl)sulfonyl]methyl}-1,3-oxazol-2-yl)benzamide] | 240 to 242 °C
Cc1oc(-c2ccc(C(=O)NCc3cccnc3)cc2)nc1CS(=O)(=O)c1ccccc1 [Example 12, 4-[5-Methyl-4-[(phenylsulfonyl)methyl]-1,3-oxazol-2-yl]-N-(3-pyridinylmethyl)benzamide] | 196 to 198 °C
Cc1oc(-c2ccc(C(=O)NCc3cccnc3)cc2)nc1CS(=O)(=O)c1ccc(Br)cc1 [Example 16, 4-(4-{[(4-Bromophenyl)sulfonyl]methyl}-5-methyl-1,3-oxazol-2-yl)-N-(3-pyridinylmethyl)benzamide] | 224 to 227 °C
COc1cccc(S(=O)(=O)Cc2nc(-c3ccc(C(=O)NCc4cccnc4)cc3)oc2C)c1 [Example 19, 4-(5-Methyl-4-{[(3-methoxyphenyl)sulfonyl]methyl}-1,3-oxazol-2-yl)-N-(3-pyridinylmethyl)benzamide] | 143 to 145 °C
COc1ccc(S(=O)(=O)Cc2nc(-c3ccc(C(=O)NCc4cccnc4)cc3)oc2C)cc1OC [Example 20, 4-(4-{[(3,4-Dimethoxyphenyl)sulfonyl]methyl}-5-methyl-1,3-oxazol-2-yl)-N-(3-pyridinylmethyl)benzamide] | 104 to 108 °C
Cc1oc(-c2ccc(C(=O)NCc3cccnc3)cc2)nc1CS(=O)(=O)c1ccc(N2CCOCC2)cc1 [Example 24, 4-[5-Methyl-4-({[4-(4-morpholinyl)phenyl]sulfonyl}methyl)-1,3-oxazol-2-yl]-N-(3-pyridinylmethyl)benzamide] | 208 to 210 °C
O=C(Nc1cccnc1)c1ccc(CNS(=O)(=O)c2ccc(Cl)nc2)cc1 [II-2, 4-({[(6-Chloro-3-pyridinyl)sulfonyl]amino}methyl)-N-(3-pyridinyl)benzamide] | 226 to 228 °C
Cc1ncc(S(=O)(=O)NCc2ccc(C(=O)Nc3cccnc3)cc2)n1C [II-6, 4-({[(1,2-Dimethyl-1H-imidazol-5-yl)sulfonyl]amino}methyl)-N-(3-pyridinyl)benzamide] | 238 to 240 °C
O=C(Nc1cccnc1)c1ccc(CNS(=O)(=O)c2nnc[nH]2)cc1 [II-7, N-(3-pyridinyl)-4-{[(4H-1,2,4-triazol-3-ylsulfonyl)amino]methyl}benzamide] | 266 to 269 °C

Further lines, results first:

melting point | SMILES
248 to 250 °C | Cc1ccc(S(=O)(=O)Cc2nc(-c3ccc(C(=O)Nc4cccnc4)cc3)oc2C)cc1 [Example 1, 4-(5-Methyl-4-{[(4-methylphenyl)sulfonyl]methyl}-1,3-oxazol-2-yl)-N-(3-pyridinyl)benzamide]
229 to 231 °C | Cc1ccc(S(=O)(=O)Cc2nc(-c3ccc(C(=O)Nc4ccncc4)cc3)oc2C)cc1 [Example 2, 4-(5-Methyl-4-{[(4-methylphenyl)sulfonyl]methyl}-1,3-oxazol-2-yl)-N-(4-pyridinyl)benzamide]
195 to 197 °C | Cc1ccc(S(=O)(=O)Cc2nc(-c3ccc(C(=O)N(C)c4cccnc4)cc3)oc2C)cc1 [Example 3, N-Methyl-4-(5-methyl-4-{[(4-methylphenyl)sulfonyl]methyl}-1,3-oxazol-2-yl)-N-(3-pyridinyl)benzamide]
169 to 172 °C | Cc1ccc(S(=O)(=O)Cc2nc(-c3ccc(C(=O)NCc4ccncc4)cc3)oc2C)cc1 [Example 6, 4-(5-Methyl-4-{[(4-methylphenyl)sulfonyl]methyl}-1,3-oxazol-2-yl)-N-(4-pyridinylmethyl)benzamide]
77 to 80 °C | Cc1ccc(S(=O)(=O)Cc2nc(-c3ccc(C(=O)N(C)Cc4cccnc4)cc3)oc2C)cc1 [Example 7, N-Methyl-4-(5-methyl-4-{[(4-methylphenyl)sulfonyl]methyl}-1,3-oxazol-2-yl)-N-(3-pyridinylmethyl)benzamide]
204 to 206 °C | Cc1ccc(S(=O)(=O)Cc2nc(-c3ccc(C(=O)NCc4cnccn4)cc3)oc2C)cc1 [Example 9, 4-(5-Methyl-4-{[(4-methylphenyl)sulfonyl]methyl}-1,3-oxazol-2-yl)-N-(2-pyrazinylmethyl)benzamide]
220 to 222 °C | Cc1oc(-c2ccc(C(=O)NCc3cccnc3)cc2)nc1CS(=O)(=O)c1ccc(Cl)cc1 [Example 13, 4-(4-{[(4-Chlorophenyl)sulfonyl]methyl}-5-methyl-1,3-oxazol-2-yl)-N-(3-pyridinylmethyl)benzamide]
177 to 180 °C | Cc1oc(-c2ccc(C(=O)NCc3cccnc3)cc2)nc1CS(=O)(=O)c1ccc(C(C)(C)C)cc1 [Example 14, 4-(4-{[(4-tert-Butylphenyl)sulfonyl]methyl}-5-methyl-1,3-oxazol-2-yl)-N-(3-pyridinylmethyl)benzamide]
188 to 190 °C | Cc1cc(C)cc(S(=O)(=O)Cc2nc(-c3ccc(C(=O)NCc4cccnc4)cc3)oc2C)c1 [Example 15, 4-(4-{[(3,5-Dimethylphenyl)sulfonyl]methyl}-5-methyl-1,3-oxazol-2-yl)-N-(3-pyridinylmethyl)benzamide]
179 to 181 °C | Cc1cccc(S(=O)(=O)Cc2nc(-c3ccc(C(=O)NCc4cccnc4)cc3)oc2C)c1 [Example 17, 4-(5-Methyl-4-{[(3-methylphenyl)sulfonyl]methyl}-1,3-oxazol-2-yl)-N-(3-pyridinylmethyl)benzamide]
189 to 191 °C | COc1ccc(S(=O)(=O)Cc2nc(-c3ccc(C(=O)NCc4cccnc4)cc3)oc2C)cc1 [Example 18, 4-(4-{[(4-Methoxyphenyl)sulfonyl]methyl}-5-methyl-1,3-oxazol-2-yl)-N-(3-pyridinylmethyl)benzamide]
218 to 220 °C | Cc1oc(-c2ccc(C(=O)NCc3cccnc3)cc2)nc1CS(=O)(=O)c1ccc(F)cc1 [Example 22, 4-(4-{[(4-Fluorophenyl)sulfonyl]methyl}-5-methyl-1,3-oxazol-2-yl)-N-(3-pyridinylmethyl)benzamide]
210 to 215 °C | Cc1oc(-c2ccc(C(=O)NCc3cccnc3)cc2)nc1CS(=O)(=O)c1ccc(N2CCN(C)CC2)cc1 [Example 23, 4-[5-Methyl-4-({[4-(4-methyl-1-piperazinyl)phenyl]sulfonyl}methyl)-1,3-oxazol-2-yl]-N-(3-pyridinylmethyl)benzamide]
178 to 181 °C | Cc1ccc(S(=O)(=O)Cc2csc(-c3ccc(C(=O)NCc4cccnc4)cc3)n2)cc1 [Example 25, 4-(4-{[(4-Methylphenyl)sulfonyl]methyl}-1,3-thiazol-2-yl)-N-(3-pyridinylmethyl)benzamide]
234 to 237 °C | Cc1oc(-c2ccc(C(=O)NCc3ccccc3)cc2)nc1CS(=O)(=O)c1ccc(Br)cc1 [Example 27, N-Benzyl-4-(4-{[(4-bromophenyl)sulfonyl]methyl}-5-methyl-1,3-oxazol-2-yl)benzamide]
